Test results taken from US12594349B2, “Compositions and methods for the targeting of PCSK9” (Scribe Therapeutics Inc., priority 2022, dated 2026).

Test system: human PCSK9 locus
Assay: Secreted PCSK9 by ELISA in Huh7 cells transfected with mRNA and gRNA
Format: cell-based
Details: Huh7 cells; for Percent reduction in PCSK9 secretion / Average percent reduction in PCSK9 secretion: LTRP5-ADD-ZIM3 mRNA; for Percent reduction in PCSK9 secretion: day 6, relative to non-targeting gRNA control; for Average percent reduction in PCSK9 secretion: day 6, averaged from the two doses; for Secreted PCSK9: 6 days post-transfection, normalized to total cell count
Method: To assess PCSK9 secretion, seeded Huh7 cells were transfected with mRNA encoding a catalytically-active CasX 676, dXR1, or LTRP5-ADD-ZIM3 and a gRNA with scaffold 316 and spacer targeting either the B2M or PCSK9 locus. Media supernatant was harvested at 6, 18, 36, and 87 days post-transfection to assess level of PCSK9 secretion by ELISA. Levels of PCSK9 secretion were normalized to total cell count. As an additional control, PCSK9 secretion was also measured in the media supernatant harvested from wells containing untreated, naïve cells.
The following three human hepatocyte cancer cell lines were used in this experiment: HepG2 cells, Hep3B cells, and Huh7 cells. ˜15,000 cells of each cell line were seeded per well; the next day, seeded cells were transfected with mRNA encoding a catalytically-active CasX 676, dXR1, or LTRP5-ADD-ZIM3 and a gRNA with scaffold 316 and spacer targeting either the B2M or PCSK9 locus (see Table 23 for specific spacers and sequences). Media supernatant was harvested at 4 days post-transfection to assess level of PCSK9 secretion by ELISA, and levels of PCSK9 secretion were normalized to total cell count and illustrated in FIGS. 11A-11C. Culturing of treated Huh7 cells continued, and media supernatant was harvested at 14 and 27 days post-transfection for measuring PCSK9 secretion by ELISA. As an additional experimental control, PCSK9 secretion was also measured in the media supernatant harvested from wells containing untreated, naïve cells.
To assess PCSK9 secretion, seeded Huh7 cells were co-transfected with mRNA encoding for LTRP5-ADD-ZIM3 and a gRNA with scaffold 316 and spacer targeting the PCSK9 locus using Lipofectamine™ 3000. Two doses of total RNA input at a 2:1 mass ratio of mRNA to gRNA were used for screening: 50 ng mRNA:25 ng gRNA and 25 ng mRNA:12.5 ng gRNA. Media supernatant was harvested at 6 days post-transfection to assess level of PCSK9 secretion by ELISA (Table 74). Levels of PCSK9 secretion were normalized to total cell count. As an additional control, PCSK9 secretion was also measured in the media supernatant harvested from cells transfected with mRNA encoding for mScarlet.

[1] = LTRP5-ADD-ZIM3 mRNA + gRNA scaffold 316, 25 ng mRNA:12.5 ng gRNA
[2] = LTRP5-ADD-ZIM3 mRNA + gRNA scaffold 316, 50 ng mRNA:25 ng gRNA

Substance	Percent reduction in PCSK9 secretion (25 ng mRNA:12.5 ng gRNA) [%]	Percent reduction in PCSK9 secretion (50 ng mRNA:25 ng gRNA) [%]	Average percent reduction in PCSK9 secretion [%]	Secreted PCSK9 [1] [ng/mL]	Secreted PCSK9 [2] [ng/mL]
Non-targeting (guide CGAGACGTAATTACGTCTCG; chemistry not given here)	0	0	0	–	–
TG-06-002 (guide ACCGCUGCGCCAAGGUGCGG; listed as RNA, chemistry not given here)	–	0.4	–	–	–
TG-06-004 (guide GCCAGGCCGUCCUCCUCGGA; listed as RNA, chemistry not given here)	2.54	33.35	15.41	73.05	54.83
TG-06-005 (guide GUGCUCGGGUGCUUCGGCCA; listed as RNA, chemistry not given here)	7.19	18.47	5.64	76.37	67.08
TG-06-117 (guide ACUUUGUUUGCAAAGACCUC; listed as RNA, chemistry not given here)	37.62	16.16	10.73	98.05	68.98
TG-06-118 (guide GAGUGAAAUGGCCUGCUCUG; listed as RNA, chemistry not given here)	23.11	56.86	39.99	54.78	35.5
TG-06-119 (guide GAGCAGGCCAUUUCACUCGG; listed as RNA, chemistry not given here)	18.66	14.47	2.1	84.54	70.37
TG-06-120 (guide CUCGGAAUCUGCUGUGCAUC; listed as RNA, chemistry not given here)	32.67	73.95	53.31	47.97	21.43
TG-06-121 (guide GGAAGGGCUGUCGAUACUGG; listed as RNA, chemistry not given here)	47.89	65.57	56.73	37.13	28.33
TG-06-122 (guide CCUUUGUUUCUUCCCAGUAU; listed as RNA, chemistry not given here)	20.79	3.54	8.63	86.06	79.36
TG-06-123 (guide UCCCAGUAUCGACAGCCCUU; listed as RNA, chemistry not given here)	27.97	62.95	45.46	51.32	30.49
TG-06-124 (guide CAGUAUCGACAGCCCUUCCA; listed as RNA, chemistry not given here)	57.06	79.9	68.48	30.59	16.54
TG-06-125 (guide AGAAAGAGCAAGCCUCAUGU; listed as RNA, chemistry not given here)	35.28	69.7	52.49	46.11	24.93
